Experimental data as given in patent US20100210602A1, “PhoU (PerF), A P[…] INVOLVED IN [sequence] FORMATION AND TOLERANCE TO MULTIPLE ANTIBIOTICS AND [sequence] AS A DRUG TARGET FOR [sequence] BACTERIA” (priority 2006, published 2010).
In brackets after ≈: the same amount, converted by molar mass. Like-named read-outs stand apart in the source and are kept apart here.

Key:
Type in all cases: cell-based, M. tuberculosis
PhoY1 mutant [1] = system: PhoY1 mutant
PhoY2 mutant [2] = system: PhoY2 mutant
PhoY1 mutant [3] = system: PhoY1 mutant; remark: listed apart in the source
PhoY2 mutant [4] = system: PhoY2 mutant; remark: listed apart in the source
PhoY1 mutant [5] = system: PhoY1 mutant; remark: listed apart in the source
PhoY2 mutant [6] = system: PhoY2 mutant; remark: listed apart in the source

Row | Structure (SMILES) | PhoY1 MIC (PhoY1 mutant [1]) | PhoY2 MIC (PhoY2 mutant [2]) | PhoY1 MIC (PhoY1 mutant [1]; pH 5.6) | MBC (PhoY1 mutant [3]; pH 5.9) | MIC (PhoY1 mutant [3]; pH 5.9) | MBC (PhoY2 mutant [4]; pH 5.9) | MIC (PhoY2 mutant [4]; pH 5.9) | PhoY2 MIC (PhoY2 mutant [2]; pH 5.6) | CFU/ml 3 day (PhoY1 mutant [5]; 200 μg/ml) | CFU/ml 9 day (PhoY1 mutant [5]; 200 μg/ml) | CFU/ml 3 day (PhoY2 mutant [6]; 200 μg/ml) | CFU/ml 9 day (PhoY2 mutant [6]; 200 μg/ml) | MBC (PhoY1 mutant [3]) | MIC (PhoY1 mutant [3]) | MBC (PhoY2 mutant [4]) | MIC (PhoY2 mutant [4]) | CFU/ml 3 day (PhoY1 mutant [5]; 8 μg/ml) | CFU/ml 9 day (PhoY1 mutant [5]; 8 μg/ml) | CFU/ml 3 day (PhoY2 mutant [6]; 8 μg/ml) | CFU/ml 9 day (PhoY2 mutant [6]; 8 μg/ml)
1 | NNC(=O)c1ccncc1 [INH, isoniazid] | 0.1 µg/mL | 0.1 µg/mL |  |  |  |  |  |  |  |  |  |  |  |  |  |  |  |  |  | 
2 | NC(=O)c1cnccn1 [PZA, pyrazinamide] |  |  | 200 µg/mL | 400 µg/mL (≈ 3250 µM) | 200 µg/mL (≈ 1620 µM) | 400 µg/mL (≈ 3250 µM) | 100 µg/mL (≈ 812 µM) | 100 µg/mL | 4.3 × 10^5 CFU/ml | 3.3 × 10^3 CFU/ml | 4.83 × 10^5 CFU/ml | <10^2 CFU/ml |  |  |  |  |  |  |  | 
3 | CO[C@H]1/C=C/O[C@@]2(C)Oc3c(C)c(O)c4c(O)c(c(/C=N/N5CCN(C)CC5)c(O)c4c3C2=O)NC(=O)/C(C)=C\C=C\[C@H](C)[C@H](O)[C@@H](C)[C@@H](O)[C@@H](C)[C@H](OC(C)=O)[C@@H]1C [RIF, rifampin] | 0.1 µg/mL | 0.1 µg/mL |  |  |  |  |  |  |  |  |  |  | 0.2 µg/mL (≈ 0.243 µM) | 0.05 µg/mL (≈ 0.0608 µM) | 0.05 µg/mL (≈ 0.0608 µM) | 0.025 µg/mL (≈ 0.0304 µM) | 4.97 × 10^5 CFU/ml | 3.13 × 10^4 CFU/ml | 2.27 × 10^5 CFU/ml | <10^2 CFU/ml
